Like-named read-outs stand apart in the source and are kept apart here.
Columns and labels:
Assay type in all cases: cell-based
[1] = tested on: panel of breast cancer and lung cancer cell lines; assay: Free drug cell killing activity across the whole panel; details: all the cell lines tested (Table 2), 120 hours; read-out: EC50 values ranging over all the cell lines tested
Procedure: (§1) The in vitro cell killing activity of exatecan, gly-exatecan, and hemiasterlin were evaluated in a panel of breast cancer and lung cancer cell lines.
MDA-MB-361, SKBR3, BT20, HCC38, HCC1143, HCC1937, JIMT1, MCF-7, A549, NCI-H441, NCI-H520, NCI-H1703, NCI-H1975, NCI-H2110, NCI-H226, NCI-H292, NCI-H358 cells were purchased from ATCC (American Type Culture Collection, Manassas, VA, USA). All the cell lines were maintained in DMEM/F12 (1:1), high glucose (Corning, Corning, NY) supplemented with 10% heat-inactivated fetal bovine serum (Thermo Scientific, Grand Island, NY), 2 mM glutamax (Thermo Scientific, Grand Island, NY), and 1× Penicillin/Streptomycin (Corning, Corning, NY). Cytotoxicity effect of the Exatecan warhead was measured with a cell proliferation assay. Cells were seeded in a 384-well flat bottom white polystyrene plate at 625 cells/25 uL the day before the actual assay starts. Exatecan was formulated at 2× starting concentration in cell culture medium, serial diluted (1:3) under sterile conditions and added onto cells in triplicates. Plates were cultured at 37° C. in a CO2 incubator for 120 hours. […] Relative luminescence was measured on an ENVISION® plate reader (Perkin-Elmer; Waltham, MA). Relative luminescence readings were converted to % viability using untreated cells as controls. […]

MDA-MB-231 = assay: Free drug cell killing activity (cell proliferation assay, Cell Titer-Glo); details: for EC50: Homo sapiens
MDA-MB-468 = assay: as above; details: for EC50: Homo sapiens
MCF-7 = assay: as above; details: for EC50: Homo sapiens
Procedure: as §1
(§2) MDA-MB-361, SKBR3, BT20, HCC38, HCC1143, HCC1937, JIMT1, MCF-7, A549, NCI-H441, NCI-H520, NCI-H1703, NCI-H1975, NCI-H2110, NCI-H226, NCI-H292, NCI-H358 cells were purchased from ATCC (American Type Culture Collection, Manassas, VA, USA). All the cell lines were maintained in DMEM/F12 (1:1), high glucose (Corning, Corning, NY) supplemented with 10% heat-inactivated fetal bovine serum (Thermo Scientific, Grand Island, NY), 2 mM glutamax (Thermo Scientific, Grand Island, NY), and 1× Penicillin/Streptomycin (Corning, Corning, NY). Cytotoxicity effect of the Exatecan warhead was measured with a cell proliferation assay. Cells were seeded in a 384-well flat bottom white polystyrene plate at 625 cells/25 uL the day before the actual assay starts. Exatecan was formulated at 2× starting concentration in cell culture medium, serial diluted (1:3) under sterile conditions and added onto cells in triplicates. Plates were cultured at 37° C. in a CO2 incubator for 120 hours. For cell viability measurement, 30 microliter of Cell Titer-Glo® reagent (Promega Corp, Madison, WI) was added into each well, and plates processed as per product instructions. Relative luminescence was measured on an ENVISION® plate reader (Perkin-Elmer; Waltham, MA). Relative luminescence readings were converted to % viability using untreated cells as controls. Data was fitted with non-linear regression analysis, using log (inhibitor) vs. response, variable slope, 4-parameter fit equation using GraphPad Prism.

NCI-H1975 = assay: as above; details: for EC50: Homo sapiens
Procedure: as §1, §2

NCI-H226 = assay: as above; details: for EC50: Homo sapiens
Procedure: as §1, §2

SKBR3 = assay: as above; details: for EC50: Homo sapiens
Procedure: as §1, §2

BT20 = assay: as above; details: for EC50: Homo sapiens
Procedure: as §1, §2

A549 = assay: as above; details: for EC50: Homo sapiens
Procedure: as §1, §2

NCI-H1703 = assay: as above; details: for EC50: Homo sapiens
Procedure: as §1, §2

HCC1937 = assay: as above; details: for EC50: Homo sapiens
Procedure: as §1, §2

JIMT1 = assay: as above; details: for EC50: Homo sapiens
Procedure: as §1, §2

NCI-H292 = assay: as above; details: for EC50: Homo sapiens
Procedure: as §1, §2

NCI-H358 = assay: as above; details: for EC50: Homo sapiens
Procedure: as §1, §2

HCC38 = assay: as above; details: for EC50: Homo sapiens
Procedure: as §1, §2

MDA-MB-361 = assay: as above; details: for EC50: Homo sapiens
Procedure: as §1, §2

NCI-H2110 = assay: as above
Procedure: as §1, §2

NCI-H520 = assay: as above; details: NCI-H520, 120 hours; for EC50: Homo sapiens
Procedure: as §1, §2

NCI-H441 = assay: as above; details: for EC50: Homo sapiens
Procedure: as §1, §2

HCC1143 = assay: as above; details: for EC50: Homo sapiens
Procedure: as §1, §2

NCI-H2343 = assay: as above

CC[C@@]1(O)C(=O)OCc2c1cc1n(c2=O)Cc2c-1nc1cc(F)c(C)c3c1c2[C@@H](N)CC3 [Exatecan, exatecan]
EC50 [1]: 0.32 to 4.2 nM | EC50 (MDA-MB-231; MDA-MB-231, 120 h): 0.84 nM | Span (%) (MDA-MB-231; MDA-MB-231, 120 hours): 64% | EC50 (MDA-MB-468; MDA-MB-468, 120 h): 0.59 nM | Span (%) (MDA-MB-468; MDA-MB-468, 120 hours): 97% | EC50 (MCF-7; MCF7, 120 h): 1.2 nM | Span (%) (MCF-7; MCF-7, 120 hours): 83% | EC50 (NCI-H1975; NCI-H1975, 120 h): 0.87 nM | Span (%) (NCI-H1975; NCI-H1975, 120 hours): 90% | EC50 (NCI-H226; NCI-H226, 120 h): 1.08 nM | Span (%) (NCI-H226; NCI-H226, 120 hours): 98% | EC50 (SKBR3; SK-BR-3, 120 h): 0.39 nM | Span (%) (SKBR3; SKBR3, 120 hours): 96% | Span (%) (BT20; BT20, 120 hours): 96% | EC50 (BT20; BT-20, 120 h): 0.91 nM | Span (%) (A549; A549, 120 hours): 96% | EC50 (A549; A549, 120 h): 1.2 nM | EC50 (NCI-H1703; NCI-H1703, 120 h): 1.1 nM | Span (%) (NCI-H1703; NCI-H1703, 120 hours): 93% | Span (%) (HCC1937; HCC1937, 120 hours): 94% | EC50 (HCC1937; HCC1937, 120 h): 3.5 nM | EC50 (JIMT1; JIMT-1, 120 h): 1.6 nM | Span (%) (JIMT1; JIMT1, 120 hours): 98% | EC50 (NCI-H292; NCI-H292, 120 h): 0.36 nM | Span (%) (NCI-H292; NCI-H292, 120 hours): 98% | EC50 (NCI-H358; NCI-H358, 120 h): 0.53 nM | Span (%) (NCI-H358; NCI-H358, 120 hours): 96% | Span (%) (HCC38; HCC38, 120 hours): 96% | EC50 (HCC38; HCC38, 120 h): 0.38 nM | EC50 (MDA-MB-361; MDA-MB-361, 120 h): 1.2 nM | Span (%) (MDA-MB-361; MDA-MB-361, 120 hours): 96% | EC50 (NCI-H2110; NCI-H2110, 120 h): 0.61 nM | Span (%) (NCI-H2110; NCI-H2110, 120 hours): 91% | EC50 (NCI-H520): 0.6 nM | Span (%) (NCI-H520): 96% | EC50 (NCI-H441; NCI-H441, 120 h): 0.32 nM | Span (%) (NCI-H441; NCI-H441, 120 hours): 93% | Span (%) (HCC1143; HCC1143, 120 hours): 76% | EC50 (HCC1143; HCC1143, 120 h): 0.85 nM | EC50 (NCI-H2343; 120 h): 12 nM | Span (%) (NCI-H2343; NCI-H2343, 120 hours): 70%

CC[C@@]1(O)C(=O)OCc2c1cc1n(c2=O)Cc2c-1nc1cc(F)c(C)c3c1c2[C@@H](NC(=O)CN)CC3 [Gly-exatecan, gly-exatecan]
EC50 [1]: 3.8 to 44 nM | EC50 (MDA-MB-231; MDA-MB-231, 120 hours, read-out: EC50): 3.8 nM | Span (%) (MDA-MB-231; MDA-MB-231, 120 hours): 60% | EC50 (MDA-MB-468; MDA-MB-468, 120 hours, read-out: EC50): 5.3 nM | Span (%) (MDA-MB-468; MDA-MB-468, 120 hours): 91% | EC50 (MCF-7; MCF7, MCF-7, 120 hours, read-out: EC50): 8.8 nM | Span (%) (MCF-7; MCF-7, 120 hours): 75% | EC50 (NCI-H1975; NCI-H1975, 120 hours, read-out: EC50): 43 nM | Span (%) (NCI-H1975; NCI-H1975, 120 hours): 84% | EC50 (NCI-H226; NCI-H226, 120 hours, read-out: EC50): 23 nM | Span (%) (NCI-H226; NCI-H226, 120 hours): 99% | EC50 (SKBR3; SK-BR-3, SKBR3, 120 hours, read-out: EC50): 4.2 nM | Span (%) (SKBR3; SKBR3, 120 hours): 95% | Span (%) (BT20; BT20, 120 hours): 92% | EC50 (BT20; BT-20, BT20, 120 hours, read-out: EC50): 21 nM | Span (%) (A549; A549, 120 hours): 90% | EC50 (A549; A549, 120 hours, read-out: EC50): 44 nM | EC50 (NCI-H1703; NCI-H1703, 120 hours, read-out: EC50): 25 nM | Span (%) (NCI-H1703; NCI-H1703, 120 hours): 91% | Span (%) (HCC1937; HCC1937, 120 hours): 87% | EC50 (HCC1937; HCC1937, 120 hours, read-out: EC50): 35 nM | EC50 (JIMT1; JIMT-1, JIMT1, 120 hours, read-out: EC50): 15 nM | Span (%) (JIMT1; JIMT1, 120 hours): 70% | EC50 (NCI-H292; NCI-H292, 120 hours, read-out: EC50): 4 nM | Span (%) (NCI-H292; NCI-H292, 120 hours): 94% | EC50 (NCI-H358; NCI-H358, 120 hours, read-out: EC50): 7.5 nM | Span (%) (NCI-H358; NCI-H358, 120 hours): 95% | Span (%) (HCC38; HCC38, 120 hours): 93% | EC50 (HCC38; HCC38, 120 hours, read-out: EC50): 6.1 nM | EC50 (MDA-MB-361; MDA-MB-361, 120 hours, read-out: EC50): 4.5 nM | Span (%) (MDA-MB-361; MDA-MB-361, 120 hours): 98% | Span (%) (NCI-H2110; NCI-H2110, 120 hours): 89% | EC50 (NCI-H2110; NCI-H2110, 120 hours, read-out: EC50): 9.2 nM | EC50 (NCI-H520): 11 nM | Span (%) (NCI-H520): 80% | EC50 (NCI-H441; NCI-H441, 120 hours, read-out: EC50): 5.1 nM | Span (%) (NCI-H441; NCI-H441, 120 hours): 90% | Span (%) (HCC1143; HCC1143, 120 hours): 76% | EC50 (HCC1143; HCC1143, 120 hours, read-out: EC50): 14 nM | Span (%) (NCI-H2343; NCI-H2343, 120 hours): 55% | EC50 (NCI-H2343; NCI-H2343, 120 hours, read-out: EC50): 30 nM
